Assay results from patent US20240374573A1, “IMIDAZOLE CONTAINING COMPOUNDS, DERIVATIVES THEREFORE, AND USES THEREOF” (AglaeaPharma Inc., priority 2023, published 2024).

Columns and labels:
α2AAR = biological target: T1, α2AAR (Homo sapiens, UniProt P08913); experiment: α2AAR binding assay ([3H]-RX 821002 radioligand); details: [3H]-RX 821002 0.5 nM, HEK293 membranes; read-out: α2A affinity (Ki)
T1 construct: host or cells: HEK293 (membranes)
T1 sequence (P08913 1-465): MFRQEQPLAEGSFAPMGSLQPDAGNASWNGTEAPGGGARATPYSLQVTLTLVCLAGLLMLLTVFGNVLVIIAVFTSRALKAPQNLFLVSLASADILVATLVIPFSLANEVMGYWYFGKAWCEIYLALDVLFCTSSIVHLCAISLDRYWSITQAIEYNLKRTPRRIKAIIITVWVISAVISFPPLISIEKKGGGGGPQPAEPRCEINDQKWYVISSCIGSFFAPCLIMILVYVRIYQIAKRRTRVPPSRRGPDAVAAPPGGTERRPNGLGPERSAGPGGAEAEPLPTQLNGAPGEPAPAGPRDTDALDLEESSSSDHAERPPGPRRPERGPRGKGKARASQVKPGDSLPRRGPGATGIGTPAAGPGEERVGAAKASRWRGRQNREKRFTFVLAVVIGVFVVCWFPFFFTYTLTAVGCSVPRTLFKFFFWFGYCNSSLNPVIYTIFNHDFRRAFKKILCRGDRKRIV

[1] = biological target: P-glycoprotein (P-gp, MDR1) (Homo sapiens, UniProt P08183); experiment: in vitro; details: dog, MDCK-MDR1, pH 7.4
Chain of P-glycoprotein (P-gp, MDR1) (P08183 whole entry): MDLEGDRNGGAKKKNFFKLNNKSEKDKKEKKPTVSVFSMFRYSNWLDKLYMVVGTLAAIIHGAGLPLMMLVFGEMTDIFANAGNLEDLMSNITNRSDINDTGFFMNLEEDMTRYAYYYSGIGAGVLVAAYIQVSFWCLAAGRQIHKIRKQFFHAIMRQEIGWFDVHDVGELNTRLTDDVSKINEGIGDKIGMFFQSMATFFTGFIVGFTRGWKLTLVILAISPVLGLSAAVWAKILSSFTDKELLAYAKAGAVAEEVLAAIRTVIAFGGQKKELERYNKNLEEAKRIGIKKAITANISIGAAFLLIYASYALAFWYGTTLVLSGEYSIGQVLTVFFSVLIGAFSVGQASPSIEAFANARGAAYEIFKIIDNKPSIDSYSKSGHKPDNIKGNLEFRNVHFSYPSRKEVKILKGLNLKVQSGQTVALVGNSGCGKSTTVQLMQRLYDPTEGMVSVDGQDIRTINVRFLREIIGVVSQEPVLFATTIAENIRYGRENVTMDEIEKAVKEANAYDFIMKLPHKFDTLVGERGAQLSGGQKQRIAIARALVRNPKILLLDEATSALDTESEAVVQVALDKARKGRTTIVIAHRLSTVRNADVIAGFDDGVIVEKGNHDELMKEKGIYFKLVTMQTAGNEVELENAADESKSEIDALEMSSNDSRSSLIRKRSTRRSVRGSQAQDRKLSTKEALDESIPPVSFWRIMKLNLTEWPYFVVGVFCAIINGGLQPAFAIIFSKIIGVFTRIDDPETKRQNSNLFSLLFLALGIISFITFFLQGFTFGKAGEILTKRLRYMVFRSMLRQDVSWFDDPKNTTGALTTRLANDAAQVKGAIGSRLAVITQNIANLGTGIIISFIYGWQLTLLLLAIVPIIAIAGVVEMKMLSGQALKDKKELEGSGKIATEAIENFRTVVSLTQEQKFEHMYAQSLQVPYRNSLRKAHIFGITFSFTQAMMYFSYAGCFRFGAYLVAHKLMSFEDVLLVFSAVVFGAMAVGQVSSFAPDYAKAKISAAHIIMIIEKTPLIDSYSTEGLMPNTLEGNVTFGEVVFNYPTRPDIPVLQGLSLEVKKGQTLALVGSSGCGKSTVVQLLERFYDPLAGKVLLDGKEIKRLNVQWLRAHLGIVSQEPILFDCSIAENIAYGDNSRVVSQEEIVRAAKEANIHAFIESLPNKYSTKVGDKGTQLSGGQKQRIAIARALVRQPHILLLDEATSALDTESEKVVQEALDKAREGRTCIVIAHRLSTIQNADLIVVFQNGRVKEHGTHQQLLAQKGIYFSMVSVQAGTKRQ
Protocol: MDR1-MDCK II cells (obtained from Piet Borst at the Netherlands Cancer Institute) were seeded onto Polycarbonate membranes (PC) in 96-well insert systems at 3.33×10^5 cells/mL until to 4-7 days for confluent cell monolayer formation.
Selected α2AR agonist from table 3s were diluted with the transport buffer (HBSS with 10.0 mM Hepes, pH7.4) from DMSO stock solution to a concentration of 2 μM (DMSO<1%) and applied to the apical or basolateral side of the cell monolayer. […] Permeation of the test compounds from A to B direction and/or B to A direction was determined in duplicate. Digoxin was tested at 10.0 μM from A to B direction and B to A direction in duplicate. The plate was incubated for 2.5 hours in CO2 incubator at 37.0±1.0° C., with 5.0% CO2 at saturated humidity without shaking. In addition, the efflux ratio of each compound was also determined. Test and reference compounds were quantified by LC/MS/MS analysis based on the peak area ratio of analyte/IS.
After transport assay, lucifer yellow rejection assay was applied to determine the cell monolayer integrity. Buffers were removed from both apical and basolateral chambers, followed by the addition of 75 μL of 100 μM lucifer yellow in transport buffer and 250 μL transport buffer in apical and basolateral chambers, respectively. The plate was incubated for 30 minutes at 37.0° C. with 5.0% CO2 and 95.0% relative humidity without shaking. After 30 minutes incubation, 20 μL of lucifer yellow samples were taken from the apical sides, followed by the addition of 60 μL of transport Buffer. And then 80 μL of lucifer yellow samples were taken from the basolateral sides. The relative fluorescence unit (RFU) of lucifer yellow was measured at 425/528 nm (excitation/emission) with an Envision plate reader.
The apparent permeability coefficient Papp (cm/s) was calculated using the equation: […]
wherein dCr/dt is the cumulative concentration of compound in the receiver chamber as a function of time (μM/s); Vr is the solution volume in the receiver chamber (0.075 mL on the apical side, 0.25 mL on the basolateral side); A is the surface area for the transport, i.e. 0.143 cm2 for the area of the monolayer; and C0 is the initial concentration in the donor chamber (μM).
The efflux ratio was calculated using the equation: […]

[2] = biological target: T2, α2AAR (α2A-adrenergic receptor) (Homo sapiens, UniProt P08913); experiment: α2AAR FLIPR assay (agonist activity); type: cell-based; details: FLIPR, α2AAR cell line hosted in HEK293 cells; read-out: α2A agonist activity (EC50)
T2 construct: expressed in transfected cells; host or cells: HEK293
T2 sequence (P08913 1-465): T1 sequence (P08913 1-465)
In short: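 HEK293 cells expressing α2AAR loaded with Fluo-4 Direct plus probenecid for 50 min at 37° C and 10 min at room temperature, then treated with serially diluted compounds.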

| Structure (SMILES) | Ki (α2AAR) [nM] | efflux ratio at 2.5 h, 2 μM [1] | EC50 [2] [nM] |
| --- | --- | --- | --- |
| Cc1cccc(C(c2c[nH]cn2)c2cccc(C(N)=O)n2)c1C (stereo not shown) [compound 56] | 10 to 50 | 11.5 | 10 to 50 |
| Cc1cccc(C(c2c[nH]cn2)c2cccc(C(=O)NCC3CCOCC3)c2F)c1C (single isomer, unassigned) [124-B] | < 10 | 10.3 | 10 to 50 |
| Cc1cccc(C(c2cccc(NC(=O)CC[N+](C)(C)C)c2)c2c[nH]cn2)c1C (stereo not shown) [compound 141] | 10 to 50 | 2.61 | 50 to 250 |
| CONC(=O)Nc1cccc(C(c2c[nH]cn2)c2cccc(C)c2C)c1 (stereo not shown) [compound 72] | 10 to 50 | 32.9 | 10 to 50 |
| Cc1c(CF)cccc1C(c1cccc(NS(C)(=O)=O)c1)c1c[nH]cn1 (racemic) [compound 118] | 10 to 50 | 25.3 | 10 to 50 |
| Cc1cccc(C(Cc2cccc(NS(=O)(=O)CC3CCOCC3)c2)c2c[nH]cn2)c1C (stereo not shown) [compound 112] | < 10 | 58.4 | 10 to 50 |
| Cc1cccc(C(c2cccc(C(=O)NOCC3CCOC3)c2)c2c[nH]cn2)c1C (stereo not shown) [compound 95] | < 10 | 102 | 10 to 50 |
| Cc1cccc(C(c2cccc(C(=O)NCC3CCOCC3)c2)c2c[nH]cn2)c1C (stereo not shown) [compound 98] |  | 82.6 |  |
| C[C@H]1O[C@@H](O[C@H]2[C@@H](O)C[C@H](O[C@H]3[C@@H](O)C[C@H](O[C@H]4CC[C@@]5(C)[C@H](CC[C@@H]6[C@@H]5C[C@@H](O)[C@]5(C)[C@@H](C7=CC(=O)OC7)CC[C@]65O)C4)O[C@@H]3C)O[C@@H]2C)C[C@H](O)[C@@H]1O [Digoxin, reference compound] |  | 13.7 |  |
| Brc1c(NC2=NCCN2)ccc2nccnc12 [Brimonidine, brimonidine, reference compound] |  | 0.83 |  |
| Cc1cccc(C(Cc2ccc(-c3cnnn3C)cc2)c2c[nH]cn2)c1C (stereo not shown) [compound 209] | < 10 |  | 10 to 50 |
| Cc1cccc(C(c2cccc(OCCNS(C)(=O)=O)c2)c2c[nH]cn2)c1C (stereo not shown) [compound 22] | 10 to 50 |  | 10 to 50 |
| Cc1cccc(C(Cc2ccc(C(C)C(=O)O)cc2)c2c[nH]cn2)c1C (stereo not shown) [compound 174] | 50 to 250 |  | 10 to 50 |
| Cc1cccc(C(c2cccc(NC(=O)C3CCOCC3)c2)c2c[nH]cn2)c1C (stereo not shown) [compound 149] | 10 to 50 |  | 10 to 50 |
| CS(=O)(=O)Nc1cccc(CC(Oc2c(Cl)cccc2Cl)C2=NCCN2)c1 (stereo not shown) [compound 516] | 50 to 250 |  | 50 to 250 |
| CNC(=O)Nc1cccc(C(c2c[nH]cn2)c2cccc(C)c2C)n1 (stereo not shown) [compound 146] | 10 to 50 |  | 10 to 50 |
| Cc1cccc(C(c2cccc(NC(=O)CC3CCS(=O)(=O)CC3)c2)c2c[nH]cn2)c1C (stereo not shown) [compound 117] | 10 to 50 |  | < 10 |
| Cc1cccc(C(Cc2ccc(NC(=O)CC3CCCCO3)cc2)c2c[nH]cn2)c1C (stereo not shown) [compound 169] | < 10 |  | < 10 |
| Cc1cccc(C(c2cccc(NC(=O)CCC#N)c2)c2c[nH]cn2)c1C (single isomer, unassigned) [43-B] | 10 to 50 |  | 10 to 50 |
| Cc1cccc(C(c2cccc(NC(=O)CCC#N)c2)c2c[nH]cn2)c1C (stereo not shown) [compound 43] | 10 to 50 |  | 10 to 50 |
| Cc1cccc(C(Cc2ccc(NC(=O)CC3CCCCC3)cc2)c2c[nH]cn2)c1C (stereo not shown) [compound 181] | < 10 |  | 50 to 250 |
| Cc1cccc(C(Cc2ccc(C(=O)O)cc2)c2c[nH]cn2)c1C (single isomer, unassigned) [175-B] | 50 to 250 |  | 10 to 50 |
| Cc1cccc(C(c2cccc(NC(=O)CCN3CCNCC3)c2)c2c[nH]cn2)c1C (stereo not shown) [compound 90] | 50 to 250 |  | 50 to 250 |
| Cc1cccc(C(Cc2ccc(S(C)(=O)=O)cc2)c2c[nH]cn2)c1C (stereo not shown) [compound 232] | < 10 |  | < 10 |

| Structure (SMILES) | Ki (α2AAR) [nM] | efflux ratio at 2.5 h, 2 μM [1] | EC50 [2] [nM] |
| --- | --- | --- | --- |
| Cc1cccc(C(Cc2ccc(C(C)(C)C(=O)O)cc2)c2c[nH]cn2)c1C (stereo not shown) [compound 251] | 50 to 250 |  | 10 to 50 |
| Cc1cn(-c2cccc(C(c3c[nH]cn3)c3cccc(C)c3C)c2)nn1 (stereo not shown) [compound 160] | 10 to 50 |  | 10 to 50 |
| Cc1cccc(C(Cc2ccc(NC(=O)NC3CCOC3)cc2)c2c[nH]cn2)c1C (stereo not shown) [compound 198] | < 10 |  | 10 to 50 |
| Cc1cccc(C(Cc2ccc(C(=O)O)cc2)c2c[nH]cn2)c1C (stereo not shown) [compound 175] | 250 to 1000 |  | 10 to 50 |
| CNc1cccc(CC(c2c[nH]cn2)c2cccc(C)c2C)c1 (stereo not shown) [compound 231] | 10 to 50 |  | 10 to 50 |
| Cc1cccc(C(c2cccc(NS(C)(=O)=O)c2)c2c[nH]cn2)c1C (single isomer, unassigned) [44-B] | < 10 |  | 10 to 50 |
| COc1ccccc1C(Cc1cccc(NS(=O)(=O)CC2CCOCC2)c1)NC1=NCCS1 (stereo not shown) [compound 515] | < 10 |  | 50 to 250 |
| Cc1cccc(C(c2cccc(C(=O)NCC3CCOCC3)c2)c2c[nH]cn2)c1C (single isomer, unassigned) [98-B] | < 10 |  | < 10 |
| CNS(=O)(=O)c1cccc(C(c2c[nH]cn2)c2cccc(C)c2C)c1 (stereo not shown) [compound 28] | 10 to 50 |  | 10 to 50 |
| Cc1cccc(C(COCCOCCNC(=O)Nc2ccncn2)c2c[nH]cn2)c1C (stereo not shown) [compound 20] | 50 to 250 |  | 10 to 50 |
| Cc1cccc(C(c2ccnc(C(N)=O)c2)c2c[nH]cn2)c1C (stereo not shown) [compound 31] | 50 to 250 |  | 10 to 50 |
| CNC(=O)c1ccc(CC(c2c[nH]cn2)c2cccc(C)c2C)cc1F (stereo not shown) [compound 192] | < 10 |  | 10 to 50 |
| Cc1cccc(C(Cc2cccc(NS(C)(=O)=O)c2)c2c[nH]cn2)c1C (stereo not shown) [compound 76] | < 10 |  | 50 to 250 |
| Cc1cccc(C(c2cccc(NC(=O)CC3CCNC3)c2)c2c[nH]cn2)c1C (stereo not shown) [compound 79] | 10 to 50 |  | 50 to 250 |
| COc1ccc(CC(c2c[nH]cn2)c2cccc(C)c2C)cc1OC (stereo not shown) [compound 224] | < 10 |  | < 10 |
| Cc1cccc(C(Cc2ccc(C(=O)NC3CCOCC3)c(O)c2)c2c[nH]cn2)c1C (stereo not shown) [compound 233] | 10 to 50 |  | 10 to 50 |
| Cc1ccccc1C(Cc1ccc(C(N)=O)cc1)c1c[nH]cn1 (stereo not shown) [compound 244] | 50 to 250 |  | 50 to 250 |
| Cc1cccc(C(c2c[nH]cn2)c2cccc(C(=O)NOC3CCOCC3)n2)c1C (stereo not shown) [compound 152] | < 10 |  | 10 to 50 |
| COc1cc(CC(c2c[nH]cn2)c2cccc(C)c2C)cc(OC)c1OC (stereo not shown) [compound 226] | < 10 |  | < 10 |
| CC(=O)Nc1cccc(C(c2c[nH]cn2)c2cccc(C)c2C)c1 (stereo not shown) [compound 30] | 50 to 250 |  | 50 to 250 |
| Cc1cccc(C(c2cccc(NC(=O)N3CCCCC3)c2)c2c[nH]cn2)c1C (stereo not shown) [compound 180] | 10 to 50 |  | 10 to 50 |
| Cc1cccc(C(Cc2ccc(C(=O)NCCC(=O)O)cc2)c2c[nH]cn2)c1C (stereo not shown) [compound 236] | 50 to 250 |  | 10 to 50 |
| COP(=O)(CC1CCOCC1)Nc1cccc(C(c2c[nH]cn2)c2cccc(C)c2C)c1 (stereo not shown) [compound 167] | 10 to 50 |  | 10 to 50 |
| CC(=O)Nc1cccc(C(c2c[nH]cn2)c2cccc(C)c2C)c1F (stereo not shown) [compound 50] | 50 to 250 |  | 50 to 250 |
